These results are taken from ChEMBL document CHEMBL1157046, “QSAR modeling of taxane analogues against colon cancer” (Eur J Med Chem, 2010).

Structures are written as SMILES.

This experiment relates to HCT-116. The experiment is described as follows: Cytotoxicity against human HCT116 cells after 72 hrs. In kind it is functional, cell-based. Particulars: HCT-116, 72 h.
With `CC(=O)O[C@H]1C(=O)[C@@]2(C)[C@H]([C@H](OC(=O)c3ccccc3)[C@]3(O)C[C@H](OC(=O)[C@H](O)[C@@H](NC(=O)c4ccccc4)c4ccccc4)C(C)=C1C3(C)C)[C@]1(OC(=O)CF)CO[C@@H]1C[C@@H]2O`, the IC50 is 7.08 nM. As for `CC(=O)O[C@H]1C(=O)[C@@]2(C)[C@H]([C@H](OC(=O)c3ccccc3)[C@]3(O)C[C@H](OC(=O)[C@H](O)[C@@H](NC(=O)c4ccccc4)c4ccccc4)C(C)=C1C3(C)C)[C@]1(OC(=O)C(Cl)(Cl)Cl)CO[C@@H]1C[C@@H]2O`, the IC50 is 3.98 nM. In the case of `CCC(=O)O[C@@]12CO[C@@H]1C[C@H](O)[C@@]1(C)C(=O)[C@H](OC(C)=O)C3=C(C)[C@@H](OC(=O)[C@H](O)[C@@H](NC(=O)c4ccccc4)c4ccccc4)C[C@@](O)([C@@H](OC(=O)c4ccccc4)[C@H]21)C3(C)C` it was 2 nM; in that of `C=CC(=O)O[C@@]12CO[C@@H]1C[C@H](O)[C@@]1(C)C(=O)[C@H](OC(C)=O)C3=C(C)[C@@H](OC(=O)[C@H](O)[C@@H](NC(=O)c4ccccc4)c4ccccc4)C[C@@](O)([C@@H](OC(=O)c4ccccc4)[C@H]21)C3(C)C`, 6.03 nM; in that of `CCCC(=O)O[C@@]12CO[C@@H]1C[C@H](O)[C@@]1(C)C(=O)[C@H](OC(C)=O)C3=C(C)[C@@H](OC(=O)[C@H](O)[C@@H](NC(=O)c4ccccc4)c4ccccc4)C[C@@](O)([C@@H](OC(=O)c4ccccc4)[C@H]21)C3(C)C`, 1.1 nM.

In turn, `CC(=O)O[C@H]1C(=O)[C@@]2(C)[C@H]([C@H](OC(=O)c3ccccc3)[C@]3(O)C[C@H](OC(=O)[C@H](O)[C@@H](NC(=O)c4ccccc4)c4ccccc4)C(C)=C1C3(C)C)[C@]1(OC(=O)C(C)C)CO[C@@H]1C[C@@H]2O` gave a 50% inhibitory concentration (IC50) of 5.01 nM.

Take `C=C(C)C(=O)O[C@@]12CO[C@@H]1C[C@H](O)[C@@]1(C)C(=O)[C@H](OC(C)=O)C3=C(C)[C@@H](OC(=O)[C@H](O)[C@@H](NC(=O)c4ccccc4)c4ccccc4)C[C@@](O)([C@@H](OC(=O)c4ccccc4)[C@H]21)C3(C)C`: the IC50 is 4.47 nM. Turning to `C/C=C/C(=O)O[C@@]12CO[C@@H]1C[C@H](O)[C@@]1(C)C(=O)[C@H](OC(C)=O)C3=C(C)[C@@H](OC(=O)[C@H](O)[C@@H](NC(=O)c4ccccc4)c4ccccc4)C[C@@](O)([C@@H](OC(=O)c4ccccc4)[C@H]21)C3(C)C`, it took 2.29 nM to reach half-maximal inhibition (IC50). For `CC(=O)O[C@H]1C(=O)[C@@]2(C)[C@H]([C@H](OC(=O)c3ccccc3)[C@]3(O)C[C@H](OC(=O)[C@H](O)[C@@H](NC(=O)c4ccccc4)c4ccccc4)C(C)=C1C3(C)C)[C@]1(OC(=O)C3CC3)CO[C@@H]1C[C@@H]2O`, the IC50 was 1 nM. In turn, `CCCCC(=O)O[C@@]12CO[C@@H]1C[C@H](O)[C@@]1(C)C(=O)[C@H](OC(C)=O)C3=C(C)[C@@H](OC(=O)[C@H](O)[C@@H](NC(=O)c4ccccc4)c4ccccc4)C[C@@](O)([C@@H](OC(=O)c4ccccc4)[C@H]21)C3(C)C` showed an IC50 of 2 nM. In the case of `CC(=O)O[C@H]1C(=O)[C@@]2(C)[C@H]([C@H](OC(=O)c3ccccc3)[C@]3(O)C[C@H](OC(=O)[C@H](O)[C@@H](NC(=O)c4ccccc4)c4ccccc4)C(C)=C1C3(C)C)[C@]1(OC(=O)C3CCC3)CO[C@@H]1C[C@@H]2O` it was 1.51 nM; in that of `CCCCCC(=O)O[C@@]12CO[C@@H]1C[C@H](O)[C@@]1(C)C(=O)[C@H](OC(C)=O)C3=C(C)[C@@H](OC(=O)[C@H](O)[C@@H](NC(=O)c4ccccc4)c4ccccc4)C[C@@](O)([C@@H](OC(=O)c4ccccc4)[C@H]21)C3(C)C`, 6.03 nM.

As to `CC(=O)O[C@H]1C(=O)[C@@]2(C)[C@H]([C@H](OC(=O)c3ccccc3)[C@]3(O)C[C@H](OC(=O)[C@H](O)[C@@H](NC(=O)c4ccccc4)c4ccccc4)C(C)=C1C3(C)C)[C@]1(OC(=O)C3CCCC3)CO[C@@H]1C[C@@H]2O`, the midpoint of inhibition, the IC50, lay at 2 nM. In the case of `CCOC(=O)O[C@@]12CO[C@@H]1C[C@H](O)[C@@]1(C)C(=O)[C@H](OC(C)=O)C3=C(C)[C@@H](OC(=O)[C@H](O)[C@@H](NC(=O)c4ccccc4)c4ccccc4)C[C@@](O)([C@@H](OC(=O)c4ccccc4)[C@H]21)C3(C)C` it was 1 nM; in that of `CCCOC(=O)O[C@@]12CO[C@@H]1C[C@H](O)[C@@]1(C)C(=O)[C@H](OC(C)=O)C3=C(C)[C@@H](OC(=O)[C@H](O)[C@@H](NC(=O)c4ccccc4)c4ccccc4)C[C@@](O)([C@@H](OC(=O)c4ccccc4)[C@H]21)C3(C)C`, 2.57 nM. `CC(=O)O[C@H]1C(=O)[C@@]2(C)[C@H]([C@H](OC(=O)c3ccccc3)[C@]3(O)C[C@H](OC(=O)[C@H](O)[C@@H](NC(=O)c4ccccc4)c4ccccc4)C(C)=C1C3(C)C)[C@]1(OC(=O)NC3CCC3)CO[C@@H]1C[C@@H]2O`: the IC50 is 9.12 nM. `CC(=O)O[C@H]1C(=O)[C@@]2(C)[C@H]([C@H](OC(=O)c3ccccc3)[C@]3(O)C[C@H](OC(=O)[C@H](O)[C@@H](NC(=O)c4ccccc4)c4ccccc4)C(C)=C1C3(C)C)[C@]1(OC(=O)n3ccnc3)CO[C@@H]1C[C@@H]2O` showed an IC50 of 794 nM.

For the compound `COC(=O)O[C@@]12CO[C@@H]1C[C@H](O)[C@@]1(C)C(=O)[C@H](OC(C)=O)C3=C(C)[C@@H](OC(=O)[C@H](O)[C@@H](NC(=O)c4ccccc4)c4ccccc4)C[C@@](O)([C@@H](OC(=O)c4ccccc4)[C@H]21)C3(C)C` [BMS-188797], it took 2 nM to reach half-maximal inhibition (IC50).

Usually IC50 stands for the point on the concentration scale where inhibition reaches its midpoint. A higher IC50 goes with a need for much substance.
